Tested on: subjects with PAH
Test: Example 1 (ARIES-2) placebo-controlled Phase III trial, efficacy
Assay type: in vivo, human
Conditions: for Change in 6MWD from baseline to Week 12, mean / Week 12 6MWD, mean: ITT population; for Change in SF-36 Bodily pain, mean (SD) / Change in SF-36 General health, mean (SD) / Change in SF-36 Mental component summary, mean (SD) / Change in SF-36 Mental health, mean (SD) / Change in SF-36 Physical component summary, mean (SD) / Change in SF-36 Physical functioning, mean (SD) / Change in SF-36 Role-emotional, mean (SD) / Change in SF-36 Role-physical, mean (SD) / Change in SF-36 Social functioning, mean (SD) / Change in SF-36 Vitality, mean (SD) / Change in WHO functional class: +1 class / Change in WHO functional class: +2 classes / Change in WHO functional class: no change / Change in WHO functional class: −1 class / Change in WHO functional class: −2 classes: baseline to Week 12
Protocol: The primary objective of this study was to determine the effect of ambrisentan on exercise capacity in subjects with PAH. The secondary objectives of this study were to evaluate effects of ambrisentan on other clinical measures of PAH, as well as safety and tolerability of the study drug.
Study drug was provided in round, biconvex, oral tablets that were identical in appearance. Three strengths of active study drug, containing 1 mg, 2.5 mg or 5 mg of ambrisentan, were used in this study. All study drug was packaged in blister cards. Subjects were instructed to take study drug once daily (q.d.) by mouth (p.o.) in the morning, with or without food.
The maximum study duration was up to 14 weeks from the time of initial screening procedures to the final study visit (Week 12). Screening procedures were performed a maximum of 2 weeks prior to the first dose of study drug. The maximum duration of study drug treatment was 12 weeks.
Men and women, 18 years of age or older, with idiopathic PAH, PAH associated with connective tissue disease (CTD), e.g., mixed CTD, CREST syndrome, systemic sclerosis (scleroderma), overlap syndrome or systemic lupus erythematosus, or PAH associated with anorexigen use or HIV infection were enrolled in this study. Subjects were to have a documented mean PAP≧25 mmHg, PVR>3 mmHg/L/min, and PCWP or LVEDP<15 mmHg. Subjects must have been able to walk a distance of at least 150 m but no more than 450 m during 2 consecutive 6MWTs to be eligible for inclusion in the study.
After a 2 week screening period, eligible subjects were stratified based on the underlying etiology of PAH (idiopathic or non-idiopathic) and were randomized to 1 of 3 treatment groups (placebo, 2.5 mg or 5 mg ambrisentan) in a ratio of 1:1:1. One blinded dose reduction was permitted during the 12-week treatment period in the event of study drug intolerance (e.g., 5 mg to 2.5 mg, 2.5 mg to 1 mg, placebo to placebo). Subjects received a daily dose of 1 mg ambrisentan only if they reduced from the 2.5 mg dose group. Subjects were assessed for efficacy and safety at monthly intervals.
Therefore, after a minimum treatment period of 4 weeks, subjects who met 2 or more of the following predefined early escape criteria may have been removed from the study: • (a) a decrease from baseline of at least 20% in 6MWD; • (b) an increase of 1 or more WHO functional class; • (c) worsening right ventricular failure (e.g., as indicated by increased jugular venous pressure, new or worsening hepatomegaly, ascites or peripheral edema); • (d) rapidly progressing cardiogenic, hepatic or renal failure; and/or • (e) refractory systolic hypotension (systolic blood pressure <85 mmHg).
The primary efficacy endpoint was change from baseline in 6MWD evaluated after 12 weeks of treatment compared to placebo.
The secondary efficacy endpoints included: • (a) time to clinical worsening of PAH, as defined by the time from randomization to the first occurrence of death, lung transplantation, hospitalization for PAH, atrial septostomy, study discontinuation due to addition of other PAH therapeutic agents, or study discontinuation due to 2 or more early escape criteria; • (b) change from baseline measured after 12 weeks of treatment compared to placebo in: • (i) WHO functional class; • (ii) SF-36® health survey physical functioning scale; • (iii) BDI immediately following exercise; and/or • (iv) an assessment of the safety and tolerability of the study drug; and • (c) change from baseline measured after 12 weeks of treatment compared to placebo in plasma levels of ET-1, cTnT and BNP. Safety Assessments
For the ITT population, subjects were considered as belonging to their randomized treatment group, regardless of the actual treatment received.
The primary efficacy endpoint was the change from baseline in 6MWD evaluated after 12 weeks of treatment compared to placebo, where the last observation was carried forward. […]

[1] = combined 2.5 mg and 5 mg groups
[2] = combined 2.5 mg and 5 mg groups, 12 weeks

## COC(c1ccccc1)(c1ccccc1)[C@H](Oc1nc(C)cc(C)n1)C(=O)O [ambrisentan]
2.5 mg once daily
  placebo-adjusted improvement in mean 6MWD at Week 12: +32.3 m
  subjects at least maintaining their baseline WHO functional class at Week 12: 95.3%
  Change in 6MWD from baseline to Week 12, mean: +22.2 meters
  Week 12 6MWD, mean: 369.6 meters
  Change in SF-36 Bodily pain, mean (SD): +2.34 (11.87)
  Change in SF-36 General health, mean (SD): +3.84 (6.71)
  Change in SF-36 Mental component summary, mean (SD): +4.05 (10.30)
  Change in SF-36 Mental health, mean (SD): +4.98 (9.70)
  Change in SF-36 Physical component summary, mean (SD): +3.78 (7.63)
  Change in SF-36 Physical functioning, mean (SD): +3.86 (7.14)
  Change in SF-36 Role-emotional, mean (SD): +3.11 (12.90)
  Change in SF-36 Role-physical, mean (SD): +5.87 (11.72)
  Change in SF-36 Social functioning, mean (SD): +4.55 (9.72)
  Change in SF-36 Vitality, mean (SD): +4.07 (9.12)
  Change in WHO functional class: +1 class: 2 (3.1) subjects (% of ITT population)
  Change in WHO functional class: +2 classes: 1 (1.6) subjects (% of ITT population)
  Change in WHO functional class: no change: 51 (79.7) subjects (% of ITT population)
  Change in WHO functional class: −1 class: 10 (15.6) subjects (% of ITT population)
  Change in WHO functional class: −2 classes: 0 (0.0) subjects (% of ITT population)
2.5 mg once daily, 12 weeks
  Clinical worsening event: Atrial septostomy: 0 (0.0) subjects (% of ITT population)
  Clinical worsening event: Death: 2 (3.1) subjects (% of ITT population)
  Clinical worsening event: Escape criteria: 2 (3.1) subjects (% of ITT population)
  Clinical worsening event: Hospitalization for PAH: 3 (4.7) subjects (% of ITT population)
  Clinical worsening event: Lung transplantation: 0 (0.0) subjects (% of ITT population)
  Clinical worsening event: Study withdrawal due to addition of PAH treatment: 0 (0.0) subjects (% of ITT population)
  Clinical worsening: Total subjects with ≧1 event: 3 (4.7) subjects (% of ITT population)
  subjects who experienced an event of clinical worsening: 4.7%
2.5 mg once daily, Week 12
  geometric mean percent change in plasma ET-1, increase from baseline: 19%
  geometric mean plasma BNP, decrease from baseline: 29%
  mean BDI change from baseline: −0.20
5 mg once daily
  placebo-adjusted improvement in mean 6MWD at Week 12: +59.4 m
  subjects at least maintaining their baseline WHO functional class at Week 12: 96.8%
  Change in 6MWD from baseline to Week 12, mean: +49.4 meters
  Week 12 6MWD, mean: 404.7 meters
  Change in SF-36 Bodily pain, mean (SD): +0.46 (9.99)
  Change in SF-36 General health, mean (SD): +4.95 (8.05)
  Change in SF-36 Mental component summary, mean (SD): +6.28 (11.64)
  Change in SF-36 Mental health, mean (SD): +4.03 (10.13)
  Change in SF-36 Physical component summary, mean (SD): +2.97 (7.79)
  Change in SF-36 Physical functioning, mean (SD): +2.96 (6.81)
  Change in SF-36 Role-emotional, mean (SD): +8.15 (14.43)
  Change in SF-36 Role-physical, mean (SD): +7.61 (10.41)
  Change in SF-36 Social functioning, mean (SD): +4.85 (11.89)
  Change in SF-36 Vitality, mean (SD): +5.21 (8.79)
  Change in WHO functional class: +1 class: 2 (3.2) subjects (% of ITT population)
  Change in WHO functional class: +2 classes: 0 (0.0) subjects (% of ITT population)
  Change in WHO functional class: no change: 52 (82.5) subjects (% of ITT population)
  Change in WHO functional class: −1 class: 8 (12.7) subjects (% of ITT population)
  Change in WHO functional class: −2 classes: 1 (1.6) subjects (% of ITT population)
5 mg once daily, 12 weeks
  Clinical worsening event: Atrial septostomy: 0 (0.0) subjects (% of ITT population)
  Clinical worsening event: Death: 0 (0.0) subjects (% of ITT population)
  Clinical worsening event: Escape criteria: 1 (1.6) subjects (% of ITT population)
  Clinical worsening event: Hospitalization for PAH: 2 (3.2) subjects (% of ITT population)
  Clinical worsening event: Lung transplantation: 0 (0.0) subjects (% of ITT population)
  Clinical worsening event: Study withdrawal due to addition of PAH treatment: 0 (0.0) subjects (% of ITT population)
  Clinical worsening: Total subjects with ≧1 event: 3 (4.8) subjects (% of ITT population)
  subjects hospitalized for worsening right heart failure: 1 subjects
  subjects who experienced an event of clinical worsening: 4.8%
5 mg once daily, Week 12
  geometric mean percent change in plasma ET-1, increase from baseline: 72%
  geometric mean plasma BNP, decrease from baseline: 30%
  mean BDI change from baseline: −0.36
South American subgroup, 2.5 mg once daily
  placebo-adjusted 6MWD change from baseline at Week 12: +50.5 m
South American subgroup, 5 mg once daily
  placebo-adjusted 6MWD change from baseline at Week 12: +79.5 m
WHO class I/II subgroup, 2.5 mg once daily
  placebo-adjusted 6MWD change from baseline at Week 12: +44.1 m
WHO class I/II subgroup, 5 mg once daily
  placebo-adjusted 6MWD change from baseline at Week 12: +67.7 m
WHO class III/IV subgroup, 2.5 mg once daily
  placebo-adjusted 6MWD change from baseline at Week 12: +17.6 m
WHO class III/IV subgroup, 5 mg once daily
  placebo-adjusted 6MWD change from baseline at Week 12: +51.8 m
[1]
  placebo-adjusted BDI at Week 12: −1.1
  Change in 6MWD from baseline to Week 12, mean: +35.7 meters
  Week 12 6MWD, mean: 387.0 meters
  Change in SF-36 Bodily pain, mean (SD): +1.40 (10.96)
  Change in SF-36 General health, mean (SD): +4.40 (7.40)
  Change in SF-36 Mental component summary, mean (SD): +5.17 (11.00)
  Change in SF-36 Mental health, mean (SD): +4.50 (9.88)
  Change in SF-36 Physical component summary, mean (SD): +3.38 (7.69)
  Change in SF-36 Role-emotional, mean (SD): +5.63 (13.86)
  Change in SF-36 Role-physical, mean (SD): +6.74 (11.07)
  Change in SF-36 Social functioning, mean (SD): +4.70 (10.81)
  Change in SF-36 Vitality, mean (SD): +4.64 (8.94)
  Change in WHO functional class: +1 class: 4 (3.1) subjects (% of ITT population)
  Change in WHO functional class: +2 classes: 1 (0.8) subjects (% of ITT population)
  Change in WHO functional class: no change: 103 (81.1) subjects (% of ITT population)
  Change in WHO functional class: −1 class: 18 (14.2) subjects (% of ITT population)
  Change in WHO functional class: −2 classes: 1 (0.8) subjects (% of ITT population)
[2]
  Clinical worsening event: Atrial septostomy: 0 (0.0) subjects (% of ITT population)
  Clinical worsening event: Death: 2 (1.6) subjects (% of ITT population)
  Clinical worsening event: Escape criteria: 3 (2.4) subjects (% of ITT population)
  Clinical worsening event: Hospitalization for PAH: 5 (3.9) subjects (% of ITT population)
  Clinical worsening event: Lung transplantation: 0 (0.0) subjects (% of ITT population)
  Clinical worsening event: Study withdrawal due to addition of PAH treatment: 0 (0.0) subjects (% of ITT population)
  Clinical worsening: Total subjects with ≧1 event: 6 (4.7) subjects (% of ITT population)
Combined 2.5 mg and 5 mg groups, Week 12
  subjects who deteriorated by at least 1 WHO class: 3.9%
Eastern European subgroup, 2.5 mg once daily
  placebo-adjusted 6MWD change from baseline at Week 12: +66.1 m
Eastern European subgroup, 5 mg once daily
  placebo-adjusted 6MWD change from baseline at Week 12: +88.0 m
Female subjects, 2.5 mg once daily
  placebo-adjusted 6MWD change from baseline at Week 12: +42.5 m
Female subjects, 5 mg once daily
  placebo-adjusted 6MWD change from baseline at Week 12: +75.7 m
Idiopathic PAH subgroup, 2.5 mg once daily
  placebo-adjusted 6MWD change from baseline at Week 12: +56.3 m
Idiopathic PAH subgroup, 5 mg once daily
  placebo-adjusted 6MWD change from baseline at Week 12: +75.7 m
Male subjects, 2.5 mg once daily
  placebo-adjusted 6MWD change from baseline at Week 12: +6.8 m
Male subjects, 5 mg once daily
  placebo-adjusted 6MWD change from baseline at Week 12: +2.7 m
non-idiopathic PAH subgroup, 2.5 mg once daily
  placebo-adjusted 6MWD change from baseline at Week 12: −12.6 m
non-idiopathic PAH subgroup, 5 mg once daily
  placebo-adjusted 6MWD change from baseline at Week 12: +29.5 m
Subjects receiving ambrisentan (combined group), 12 weeks
  reduction in the probability of clinical worsening (hazard ratio) compared to placebo: 80%
Subjects receiving ambrisentan (combined), 12 weeks
  subjects hospitalized for PAH: 3.9%
Western European/Israel subgroup, 2.5 mg once daily
  placebo-adjusted 6MWD change from baseline at Week 12: +3.0 m
Western European/Israel subgroup, 5 mg once daily
  placebo-adjusted 6MWD change from baseline at Week 12: +39.4 m

Source: patent publication US9504685B2, “Method for treating a pulmonary hypertension condition” (Gilead Sciences, Inc., priority 2006, dated 2016)
